From patent US20260001876A1, “Compounds and Their Use as PDE4 Activators” (Mironid Limited, priority 2022, published 2026)

Test system: m-IMCD3 cells
Test: Inhibition of PGE2-stimulated in vitro cyst formation in m-IMCD3 cells (3D culture)
Assay type: cell-based
Details: Mus musculus, mIMCD3, 144 h, mean cyst area, 100% for (DMSO + PGE2) and 0% for DMSO control, 6 days of culture; for activity at 3 µM: read-out: % Cyst area* after incubation with 3 μM test compound; for activity at 10 µM: read-out: % Cyst area* after incubation with 10 μM test compound
Description: HEK 293 and MDCK cells (Public Health England, Cell Culture Collections) were maintained in Dulbecco's Modified Eagle's Medium (DMEM) supplemented with 10% (v/v) fetal bovine serum (FBS) (Seralab), 2 mM L-glutamine and 100 U/mL penicillin streptomycin cocktail (ThermoFisher); termed complete media. Clonal HEK 293 cell lines were maintained in complete media supplemented with 0.6 mg/ml G418 (Enzo Life Sciences). Mouse inner medullary collecting duct (m-IMCD3) cells [American Type Culture Collection (ATCC)] were maintained in media consisting of DMEM/Hams F-12 50/50 Mix (DMEM F12; Corning) supplemented with penicillin streptomycin cocktail (100 U/mL) and FBS (10% v/v) (DMEM F12-10% FBS).
Experiment 3: Inhibition of In Vitro Cyst Formation in m-IMCD3 Cells Treated with PDE4 Long Form Activators
The mouse Inner Medullary Collecting Duct cell line (m-IMCD3) spontaneously forms cystic spheroids in 3D culture with a Type 1 collagen/Matrigel extracellular matrix. This process can be stimulated with agents which raise intracellular cAMP and is used as an in vitro model for the formation of cystic structures in the kidneys of patients with ADPKD.
Rat Collagen I (Fisher Scientific) is prepared on ice by neutralising with 1M NaOH and diluting with a 2× volume of DMEM/F12+10% FBS. This is mixed 1:1.1 with ice cold Matrigel (Corning) for coating plates (coating mix), and 1:0.93 with Matrigel for cell plating (plating mix).
The assay is conducted in the wells of a 96-well plate culture dish using a total volume of 130 μL of collagen/Matrigel/DMEM F12-10% FBS suspension in growth media for each matrix plug per individual well. Initially, 30 μL of collagen/Matrigel/DMEM F12-10% FBS (coating mix) is added into the well of a 96 well plate and the collagen is set to a gel by incubating at 37° C. for at least 15 minutes. A second layer of 100 μL collagen/Matrigel suspension (plating mix) containing m-IMCD3 cells (2.75×10^6 m-IMCD3 cells per 96-well plate) is layered over the coating mix and the collagen/Matrigel/cell mix again set to a gel by incubating at 37° C. Cell cultures are maintained at 37° C. in an atmosphere of 5% CO2, 95% air.
Between 18 and 24 h after plating, test compound(s) as DMSO stock solutions [0.1% (v/v) final DMSO concentration] and PGE2 (100 nM final concentration) in DMEM F12-10% FBS are added in quadruplicate wells per condition. Media, together with the test compound and PGE2 are replenished after 2 or 3 days. After 6 days of culture z stack images of the wells are captured using the Nikon Eclipse Ti2-E microscope. Nikon General Analysis software is used to measure the following parameters in each well: the mean cyst area, the number of cysts, and the total cyst area.
PDE4 long form activators inhibited in vitro cyst formation in m-IMCD3 cells. Data are shown in Table 4 as mean cyst area (%), compared to 100% for (DMSO+PGE2) and 0% for DMSO control.

O=C(CC1CCCC1)N1CCc2nc(N3C4CNCC3CC(O)C4)ccc2C1 (stereo not shown) [Example 157, 2-cyclopentyl-1-(2-(7-hydroxy-3,9-diazabicyclo[3.3.1]nonan-9-yl)-7,8-dihydro-1,6-naphthyridin-6(5H)-yl)ethan-1-one]
activity at 3 µM: 10%

O=C(Cc1ccccc1)N1CCc2nc(N3CCNCC3)ccc2C1 [Example 175, 2-phenyl-1-(2-(piperazin-1-yl)-7,8-dihydro-1,6-naphthyridin-6(5H)-yl)ethan-1-one]
activity at 3 µM: 2%

O=C(N[C@H]1CCOc2ccccc21)N1CCc2nc(N3CCNCC3)ccc2C1 [Example 168, (S)—N-(chroman-4-yl)-2-(piperazin-1-yl)-7,8-dihydro-1,6-naphthyridine-6(5H)-carboxamide]
activity at 3 µM: 4%

CN1CC2CCC(C1)N2c1ccc2c(n1)CCN(C(=O)CC1CCC(F)(F)CC1)C2 [Example 106, 2-(4,4-difluorocyclohexyl)-1-(2-(3-methyl-3,8-diazabicyclo[3.2.1]octan-8-yl)-7,8-dihydro-1,6-naphthyridin-6(5H)-yl)ethan-1-one]
activity at 10 µM: 1%

CC1(CC(=O)N2CCc3nc(N4C5CCC4CNC5)ccc3C2)CCCC1 [Example 119, 1-(2-(3,8-diazabicyclo[3.2.1]octan-8-yl)-7,8-dihydro-1,6-naphthyridin-6(5H)-yl)-2-(1-methylcyclopentyl)ethan-1-one]
activity at 10 µM: -4%

COCCCN1CC2CCC(C1)N2c1ccc2c(n1)CCN(C(=O)COc1ccc(F)cc1)C2 [Example 174, 2-(4-fluorophenoxy)-1-(2-(3-(3-methoxypropyl)-3,8-diazabicyclo[3.2.1]octan-8-yl)-7,8-dihydro-1,6-naphthyridin-6(5H)-yl)ethan-1-one]
activity at 3 µM: 1%

O=C(COc1ccccc1)N1CCc2nc(N3C4CCC3CNC4)ccc2C1 [Example 41, 1-(2-(3,8-diazabicyclo[3.2.1]octan-8-yl)-7,8-dihydro-1,6-naphthyridin-6(5H)-yl)-2-phenoxyethan-1-one]
activity at 10 µM: 4%

O=C([C@H](O)C1CCCC1)N1CCc2nc(N3C4CCC3CNC4)ccc2C1 [Example 124, (2R)-1-(2-(3,8-diazabicyclo[3.2.1]octan-8-yl)-7,8-dihydro-1,6-naphthyridin-6(5H)-yl)-2-cyclopentyl-2-hydroxyethan-1-one]
activity at 3 µM: 0%

O=C(CC1CCCC1)N1CCc2nc(N3CCNCC3)ncc2C1 [Example 143, 2-cyclopentyl-1-(2-(piperazin-1-yl)-7,8-dihydropyrido[4,3-d]pyrimidin-6(5H)-yl)ethan-1-one]
activity at 3 µM: 22%

CCN(C(=O)N1CCc2nc(N3C4CCC3CNC4)ccc2C1)C1CCCC1 [Example 64, 2-(3,8-diazabicyclo[3.2.1]octan-8-yl)-N-cyclopentyl-N-ethyl-7,8-dihydro-1,6-naphthyridine-6(5H)-carboxamide]
activity at 10 µM: 0%

O=C(Cc1ccc(F)cc1)N1CCc2nc(N3CCNCC3)ccc2C1 [Example 176, 2-(4-fluorophenyl)-1-(2-(piperazin-1-yl)-7,8-dihydro-1,6-naphthyridin-6(5H)-yl)ethan-1-one]
activity at 3 µM: -2%

CCN1CC2CCC(C1)N2c1ccc2c(n1)CCN(C(=O)N[C@@H]1CCOc3ccccc31)C2 [Example 170, N—((R)-chroman-4-yl)-2-(3-ethyl-3,8-diazabicyclo[3.2.1]octan-8-yl)-7,8-dihydro-1,6-naphthyridine-6(5H)-carboxamide]
activity at 3 µM: 23%

CCCN1CC2CCC(C1)N2c1ccc2c(n1)CCN(C(=O)COc1ccc(F)cc1)C2 [Example 172, 2-(4-fluorophenoxy)-1-(2-(3-propyl-3,8-diazabicyclo[3.2.1]octan-8-yl)-7,8-dihydro-1,6-naphthyridin-6(5H)-yl)ethan-1-one]
activity at 3 µM: 6%

CN(C(=O)N1CCc2nc(N3C4CCC3CNC4)ccc2C1)C1CCCC1 [Example 63, 2-(3,8-diazabicyclo[3.2.1]octan-8-yl)-N-cyclopentyl-N-methyl-7,8-dihydro-1,6-naphthyridine-6(5H)-carboxamide]
activity at 10 µM: 2%

CCN(CC)C(=O)N1Cc2ccc(N3C4CCC3CNC4)nc2C1 [Example 96, 2-(3,8-diazabicyclo[3.2.1]octan-8-yl)-N,N-diethyl-5,7-dihydro-6H-pyrrolo[3,4-b]pyridine-6-carboxamide]
activity at 10 µM: -4%

CC(C)OC(=O)N1CCc2nc(N3C4CCC3CNC4)ccc2C1 [Example 126, isopropyl 2-(3,8-diazabicyclo[3.2.1]octan-8-yl)-7,8-dihydro-1,6-naphthyridine-6(5H)-carboxylate]
activity at 3 µM: 14%

O=C(CC1CCCC1)N1CCc2cc(N3C4CCC3CNC4)cnc2C1 [Example 177, 1-(3-(3,8-diazabicyclo[3.2.1]octan-8-yl)-5,8-dihydro-1,7-naphthyridin-7 (6H)-yl)-2-cyclopentylethan-1-one]
activity at 3 µM: 10%

CC(C)C(C)C(=O)N1CCc2nc(N3C4CCC3CNC4)ccc2C1 (stereo not shown) [Example 44, 1-(2-(3,8-diazabicyclo[3.2.1]octan-8-yl)-7,8-dihydro-1,6-naphthyridin-6(5H)-yl)-2,3-dimethylbutan-1-one]
activity at 10 µM: -2%

O=C(Cc1ccc(F)cc1)N1CCc2nc(N3CC4CCC(C3)N4)ncc2C1 [Example 141, 1-(2-(3,8-diazabicyclo[3.2.1]octan-3-yl)-7,8-dihydropyrido[4,3-d]pyrimidin-6(5H)-yl)-2-(4-fluorophenyl)ethan-1-one]
activity at 3 µM: -2%

CC(C)CC(=O)N1CCc2nc(N3C4CCC3CNC4)ccc2C1 [Example 43, 1-(2-(3,8-diazabicyclo[3.2.1]octan-8-yl)-7,8-dihydro-1,6-naphthyridin-6(5H)-yl)-3-methylbutan-1-one]
activity at 10 µM: -4%

O=C(CC1CCCC1)N1CCc2cnc(N3C4CCC3CNC4)cc2C1 [Example 179, 1-(7-(3,8-diazabicyclo[3.2.1]octan-8-yl)-3,4-dihydro-2,6-naphthyridin-2 (1H)-yl)-2-cyclopentylethan-1-one]
activity at 3 µM: 1%

O=C(CC1CCCC1)N1CCc2nc(N3C4CCC3CNC4)ccc2C1 [Example 39, 1-(2-(3,8-diazabicyclo[3.2.1]octan-8-yl)-7,8-dihydro-1,6-naphthyridin-6(5H)-yl)-2-cyclopentylethan-1-one]
activity at 10 µM: 5%

O=C(CC1CCCC1)N1CCc2nc(N3CC4CCC3CN4)ccc2C1 (stereo not shown) [Example 153, 1-(2-(2,5-diazabicyclo[2.2.2]octan-2-yl)-7,8-dihydro-1,6-naphthyridin-6(5H)-yl)-2-cyclopentylethan-1-one]
activity at 3 µM: 2%

O=C(CC1CCCC1)N1CCc2cc(N3C4CCC3CNC4)ncc2C1 [Example 178, 1-(6-(3,8-diazabicyclo[3.2.1]octan-8-yl)-3,4-dihydro-2,7-naphthyridin-2 (1H)-yl)-2-cyclopentylethan-1-one]
activity at 3 µM: 1%

N#Cc1ccc(CC(=O)N2CCc3nc(N4CC5CCC(C4)N5)ncc3C2)cc1 [Example 138, 4-(2-(2-(3,8-diazabicyclo[3.2.1]octan-3-yl)-7,8-dihydropyrido[4,3-d]pyrimidin-6(5H)-yl)-2-oxoethyl)benzonitrile]
activity at 3 µM: 0%

O=C(CC1CCCC1)N1CCc2nc(N3CC4CCC(C3)N4)ccc2C1 [Example 154, 1-(2-(3,8-diazabicyclo[3.2.1]octan-3-yl)-7,8-dihydro-1,6-naphthyridin-6(5H)-yl)-2-cyclopentylethan-1-one]
activity at 3 µM: -6%

CC(C)(C)CC(=O)N1CCc2nc(N3CCNCC3)ccc2C1 [Example 149, 3,3-dimethyl-1-(2-(piperazin-1-yl)-7,8-dihydro-1,6-naphthyridin-6(5H)-yl) butan-1-one]
activity at 3 µM: 11%

O=C(Cc1ccc(F)cc1)N1CCc2nc(N3CCNCC3)ncc2C1 [Example 140, 2-(4-fluorophenyl)-1-(2-(piperazin-1-yl)-7,8-dihydropyrido[4,3-d]pyrimidin-6(5H)-yl)ethan-1-one]
activity at 3 µM: 6%
